Experimental data from PubChem BioAssay (NCI).
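The compound was tested at five concentrations on cells cultured in 96-well plates, with a 48-hour exposure period. At the TGI there is no net growth.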

Legend:
Assay in all cases: NCI-60 cell line screen, 48 h
[1] = test system: CAKI-1 renal
[2] = test system: HCT-15 colon
[3] = test system: HS 578T breast
[4] = test system: HT29 colon
[5] = test system: KM12 colon
[6] = test system: MCF7 breast
[7] = test system: NCI-H226 lung
[8] = test system: NCI-H522 lung
[9] = test system: OVCAR-4 ovarian
[10] = test system: OVCAR-5 ovarian
[11] = test system: OVCAR-8 ovarian
[12] = test system: SF-268 CNS
[13] = test system: SK-MEL-2 melanoma
[14] = test system: SNB-75 CNS
[15] = test system: T-47D breast
[16] = test system: U251 CNS
[17] = test system: UACC-257 melanoma
[18] = test system: UACC-62 melanoma
[19] = test system: HL-60(TB) leukemia

Row | Compound | TGI [1] | TGI [2] | TGI [3] | TGI [4] | TGI [5] | TGI [6] | TGI [7] | TGI [8] | TGI [9] | TGI [10] | TGI [11] | TGI [12] | TGI [13] | TGI [14] | TGI [15] | TGI [16] | TGI [17] | TGI [18] | TGI [19]
1 | [N-]=[N+]=NC1(c2ccccc2)C(=O)c2cccc3c4ccccc4n(c23)C1=O (stereo not drawn) | > 100 µM | > 100 µM | > 100 µM | 50.8 µM | > 100 µM | > 100 µM | > 100 µM | > 100 µM | > 100 µM | > 100 µM | > 100 µM | > 100 µM | > 100 µM | > 100 µM | > 100 µM | > 100 µM | > 100 µM | > 100 µM | 
2 | COc1ccc2c(c1)nc1n2C(c2c(F)cccc2F)SC1 (stereo not drawn) | > 100 µM | > 100 µM | > 100 µM | > 100 µM | > 100 µM | > 100 µM | > 100 µM |  | > 100 µM | > 100 µM | > 100 µM | > 100 µM | 96.7 µM | > 100 µM | > 100 µM | > 100 µM | > 100 µM | > 100 µM | > 100 µM
3 | CN(C(=O)C12C3C4C1C1C2C3C41C(=O)O)C(C)(C)C (stereo not drawn) | > 100 µM | > 100 µM | > 100 µM | > 100 µM | > 100 µM | > 100 µM |  | > 100 µM | > 100 µM | > 100 µM | > 100 µM | > 100 µM | > 100 µM | > 100 µM | > 100 µM | > 100 µM | > 100 µM | > 100 µM | > 100 µM
4 | C=CCN1C(=O)/C(=C/c2ccccc2)N=C1SC/C=C/C | > 100 µM | > 100 µM | > 100 µM |  | > 100 µM | > 100 µM | > 100 µM | > 100 µM | > 100 µM |  | > 100 µM | > 100 µM | 63 µM | > 100 µM | > 100 µM | > 100 µM | 74.5 µM | > 100 µM | 
5 | COc1ccc2c(c1OC)C(Br)CCC(Br)(Br)C2=O (stereo not drawn) | 3.24 µM | 25.6 µM | 44.2 µM | 17.6 µM | 32.2 µM | 21.3 µM | 30.1 µM | 3.38 µM | 18.9 µM | 31.8 µM | 21.9 µM | 27.4 µM | 28 µM |  | 43 µM | 30.4 µM | 27.7 µM | 27.7 µM | 23.7 µM
6 | CCOC(=O)Nn1cnnc1Cc1ccccc1 | > 100 µM | > 100 µM | 81.4 µM | > 100 µM | > 100 µM | > 100 µM | > 100 µM | > 100 µM | > 100 µM | > 100 µM | > 100 µM | > 100 µM | > 100 µM |  | > 100 µM | > 100 µM | > 100 µM | > 100 µM | 
7 | Clc1ccccc1-c1nn2c(CCCCCCCCc3nnc4sc(-c5ccccc5Cl)nn34)nnc2s1 | > 100 µM | > 100 µM | > 100 µM | > 100 µM | > 100 µM | > 100 µM | > 100 µM | > 100 µM | > 100 µM | > 100 µM | > 100 µM | > 100 µM | > 100 µM | > 100 µM | > 100 µM | > 100 µM | > 100 µM | > 100 µM | 
8 | O=c1[nH]nc(Cc2ccccc2)n1N=C1CCCCC1 | > 100 µM | > 100 µM | > 100 µM | > 100 µM | > 100 µM | > 100 µM | > 100 µM | > 100 µM | > 100 µM | > 100 µM | > 100 µM | > 100 µM | > 100 µM |  | > 100 µM | > 100 µM | > 100 µM | > 100 µM | > 100 µM
9 | O=C1c2scc(-c3ccc(F)cc3)c2-n2cccc21 | > 100 µM | > 100 µM | > 100 µM | > 100 µM | > 100 µM | > 100 µM | > 100 µM | > 100 µM | > 100 µM | > 100 µM | > 100 µM | > 100 µM | > 100 µM | 45.2 µM | > 100 µM | 51.9 µM | > 100 µM | > 100 µM | 
10 | COc1ccc(-c2c(C#N)c(N)n(C3OCC(O)C(O)C3O)c(=S)c2C#N)cc1 (stereo not drawn) | > 100 µM | > 100 µM | > 100 µM | > 100 µM | > 100 µM | > 100 µM | > 100 µM | > 100 µM |  | > 100 µM | > 100 µM | > 100 µM | > 100 µM | > 100 µM | > 100 µM |  |  | > 100 µM | > 100 µM
11 | CC1(C)C2CC1C(/C=N\OCC(=O)O)=CC2=O (stereo not drawn) | > 100 µM | > 100 µM | > 100 µM | > 100 µM | > 100 µM | > 100 µM | > 100 µM |  | > 100 µM | > 100 µM | > 100 µM | > 100 µM | > 100 µM | 97.9 µM | > 100 µM | > 100 µM | > 100 µM | > 100 µM | > 100 µM
12 | CCOc1cc(NC(C)=O)ccc1C(=O)NN1C(=O)C(Cl)C1c1ccc(O)c(OC)c1 (stereo not drawn) | 31.4 µM | 29.9 µM | 51.5 µM | 31.9 µM | 33.6 µM | 30.4 µM | 48.3 µM | 22.8 µM | 31.6 µM | 33.9 µM | 82.3 µM | 35.9 µM | 33.5 µM | 24.1 µM | 30.8 µM |  | 27 µM | 25.5 µM | 38.3 µM
13 | CC(=O)N1c2ccccc2C2=NN=C(N(C)C)SC21 (stereo not drawn) |  | 15.6 µM | 52.4 µM | 20.5 µM | 11.2 µM | 14.9 µM | 19.5 µM | 6.68 µM | 29.8 µM | 18.1 µM | 12.1 µM | 16 µM | 6.36 µM | 26.4 µM | 14.9 µM | 10.8 µM | 12.7 µM |  | 5.07 µM
